Test results taken from publication PMC8286840, “Identifying SARS-CoV-2 antiviral compounds by screening for small molecule inhibitors of Nsp3 papain-like protease” (Biochemical Journal, 2021).
Counter-ions that a name gives are not always drawn. Like-named read-outs stand apart in the source and are kept apart here. Where a SMILES comes first, the peptide text is derived from it. Bridges are numbered along the chain shown (N, C = ends).

Tests used:
[1] = target: T1, SARS-CoV-2 PLpro (nsp3 1564–1878) (Severe acute respiratory syndrome coronavirus 2, UniProt P0DTD1); assay: biochemical; set-up: FRET-quenched peptide (Pro3) cleavage by PLpro, 10 min pre-incubation, slope over 20 min, normalised to no-compound control; conditions: high concentration screen, read-out: % of control remaining
[2] = target: T1, SARS-CoV-2 PLpro (nsp3 1564–1878); assay: biochemical; set-up: FRET-quenched peptide (Pro3) cleavage by PLpro, 10 min pre-incubation, slope over 20 min, normalised to no-compound control; conditions: low concentration screen, read-out: % of control remaining

## O=C(O)c1cc2cc(Cc3cccnc3)ccc2o1 [Furegrelate sodium]
[1]; Well no.=563
  remaining activity at 3.75 µM: 97.3%
[2]; Well no.=563
  remaining activity at 1.25 µM: 97.2%

## OC(CCN1CCCCC1)(c1ccccc1)C1CCCCC1 (stereo not shown) [Trihexyphenidyl hydrochloride]
[1]; Well no.=1187
  remaining activity at 3.75 µM: 92%
[2]; Well no.=1187
  remaining activity at 1.25 µM: 92.8%

## Cc1[nH]cnc1CN1CCc2c(c3ccccc3n2C)C1=O [Alosetron (Hydrochloride)]
[1]; Well no.=8289
  remaining activity at 3.75 µM: 99.5%
[2]; Well no.=8289
  remaining activity at 1.25 µM: 105%

## NCCCC[C@H](NC(=O)[C@@H]1CCCN1C(=O)[C@@H]1CSSC[C@H](NC(=O)CNC(=O)CNC(=O)CN)C(=O)N[C@@H](Cc2ccc(O)cc2)C(=O)N[C@@H](Cc2ccccc2)C(=O)N[C@@H](CCC(N)=O)C(=O)N[C@@H](CC(N)=O)C(=O)N1)C(=O)NCC(N)=O [Terlipressin] (H-GGGCYFQNCPKG-NH2; disulfide 4-9)
[1]; Well no.=8103
  remaining activity at 3.75 µM: 104%
[2]; Well no.=8103
  remaining activity at 1.25 µM: 106%

## O=C(Nc1ccc(OC(F)(F)F)cc1)c1sccc1NCc1ccnc2ccccc12 [OSI-930]
[1]; Well no.=4755
  remaining activity at 3.75 µM: 103%
[2]; Well no.=4755
  remaining activity at 1.25 µM: 105%

## CCCCCCCC/C=C\CCCCCCCC(=O)O [9(Z)-Octadecenoic acid]
[1]; Well no.=4590
  remaining activity at 3.75 µM: 98.1%
[2]; Well no.=4590
  remaining activity at 1.25 µM: 101%

## CC[C@@H](Nc1c(Nc2cccc(C(=O)N(C)C)c2O)c(=O)c1=O)c1ccc(C)o1 [Navarixin]
[1]; Well no.=8175
  remaining activity at 3.75 µM: 101%
[2]; Well no.=8175
  remaining activity at 1.25 µM: 105%

## C=C1C(=O)[C@]23[C@H](O)[C@H]1CC[C@H]2[C@@]12CO[C@]3(O)[C@@H](O)[C@@H]1C(C)(C)CC[C@@H]2O [Oridonin]
[1]; Well no.=3255
  remaining activity at 3.75 µM: 103%
[2]; Well no.=3255
  remaining activity at 1.25 µM: 101%

## Cc1ccc(=O)n(-c2ccccc2)c1 [Pirfenidone]
[1]; Well no.=904
  remaining activity at 3.75 µM: 109%
[2]; Well no.=904
  remaining activity at 1.25 µM: 107%

## NC(N)=NC(N)=Nc1ccccc1 [1-Phenylbiguanide]
[1]; Well no.=1263
  remaining activity at 3.75 µM: 102%
[2]; Well no.=1263
  remaining activity at 1.25 µM: 102%

## COc1ccc(CCN(C)CCCC(C#N)(c2ccc(OC)c(OC)c2)C(C)C)cc1OC (racemic)
[1]; Well no.=1336
  remaining activity at 3.75 µM: 101%
[2]; Well no.=1336
  remaining activity at 1.25 µM: 104%

## O=c1ccn([C@@H]2O[C@H](COP(=O)(O)OP(=O)(O)OP(=O)(O)O)[C@@H](O)[C@H]2O)c(=O)[nH]1 [Uridine triphosphate]
[1]; Well no.=8933
  remaining activity at 3.75 µM: 97.6%
[2]; Well no.=8933
  remaining activity at 1.25 µM: 95.1%

## C[C@H](N)C(=O)N1C[C@H](CCCB(O)O)[C@](N)(C(=O)O)C1 [CB-1158 (dihydrochloride)]
[1]; Well no.=8743
  remaining activity at 3.75 µM: 99.3%
[2]; Well no.=8743
  remaining activity at 1.25 µM: 100%

## CCCCCCCC/C=C\CCCCCCCC(=O)OC[C@@H](O)COP(=O)(O)O [Lysophosphatidic acid]
[1]; Well no.=4497
  remaining activity at 3.75 µM: 105%
[2]; Well no.=4497
  remaining activity at 1.25 µM: 97.9%

## COc1cc2ccc(=O)oc2cc1O [Scopoletin]
[1]; Well no.=3461
  remaining activity at 3.75 µM: 102%
[2]; Well no.=3461
  remaining activity at 1.25 µM: 103%

## OC[C@H]1O[C@@H](n2cnc3c(N[C@@H]4CCOC4)ncnc32)[C@H](O)[C@@H]1O [Tecadenoson]
[1]; Well no.=7966
  remaining activity at 3.75 µM: 96.1%
[1]; Well no.=8315
  remaining activity at 3.75 µM: 94.4%
[2]; Well no.=7966
  remaining activity at 1.25 µM: 96.9%
[2]; Well no.=8315
  remaining activity at 1.25 µM: 94.2%

## N=C(N)c1ccccc1 [Benzamidine hydrochloride]
[1]; Well no.=223
  remaining activity at 3.75 µM: 99%
[2]; Well no.=223
  remaining activity at 1.25 µM: 99.2%

## Cc1cnc(C(=O)NCCc2ccc(S(=O)(=O)NC(=O)NC3CCCCC3)cc2)cn1 [Glipizide]
[1]; Well no.=700
  remaining activity at 3.75 µM: 94.3%
[1]; Well no.=1605
  remaining activity at 3.75 µM: 93%
[2]; Well no.=700
  remaining activity at 1.25 µM: 91.5%
[2]; Well no.=1605
  remaining activity at 1.25 µM: 96.2%

## NCCCC(O)(P(=O)(O)O)P(=O)(O)O [Alendronate]
[1]; Well no.=2079
  remaining activity at 3.75 µM: 104%
[2]; Well no.=2079
  remaining activity at 1.25 µM: 105%

## CN1CCN(C2=Nc3ccccc3Sc3ccc(Cl)cc32)CC1 [Clothiapine]
[1]; Well no.=1815
  remaining activity at 3.75 µM: 99.6%
[2]; Well no.=1815
  remaining activity at 1.25 µM: 102%

## CC(C)NC[C@H](O)c1ccc(O)c(O)c1 [(-)-Isoproterenol hydrochloride]
[1]; Well no.=917
  remaining activity at 3.75 µM: 106%
[2]; Well no.=917
  remaining activity at 1.25 µM: 107%

## CN1CCc2c(c3ccccc3n2Cc2ccccc2)C1 [Mebhydrolin (napadisylate)]
[1]; Well no.=7437
  remaining activity at 3.75 µM: 94.1%
[2]; Well no.=7437
  remaining activity at 1.25 µM: 99.4%

## O=C1C(SCCO)=C(SCCO)C(=O)c2ccccc21 [NSC 95397]
[1]; Well no.=5678
  remaining activity at 3.75 µM: 75.9%
[2]; Well no.=5678
  remaining activity at 1.25 µM: 92%

## O=S(=O)(Nc1ccc(C(O)(C(F)(F)F)C(F)(F)F)cc1)c1cccs1 [SR3335]
[1]; Well no.=8457
  remaining activity at 3.75 µM: 107%
[2]; Well no.=8457
  remaining activity at 1.25 µM: 110%

## CCCCOc1ccc(C(=O)Nc2ccc(F)cc2F)cc1 [VU 0357121]
[1]; Well no.=4932
  remaining activity at 3.75 µM: 98.8%
[1]; Well no.=7857
  remaining activity at 3.75 µM: 107%
[2]; Well no.=4932
  remaining activity at 1.25 µM: 99.8%
[2]; Well no.=7857
  remaining activity at 1.25 µM: 105%

## O=c1cc(-c2ccccc2)oc2cc(O)c(O)cc12 [6,7-Dihydroxyflavone]
[1]; Well no.=3441
  remaining activity at 3.75 µM: 98.9%
[2]; Well no.=3441
  remaining activity at 1.25 µM: 100%

## Nc1nc2c(ncn2[C@@H]2O[C@H](CO)[C@@H](O)[C@H]2O)c(=O)[nH]1 [Guanosine]
[1]; Well no.=5248
  remaining activity at 3.75 µM: 98%
[1]; Well no.=6833
  remaining activity at 3.75 µM: 99.5%
[1]; Well no.=7708
  remaining activity at 3.75 µM: 91.8%
[2]; Well no.=5248
  remaining activity at 1.25 µM: 96.5%
[2]; Well no.=6833
  remaining activity at 1.25 µM: 97.7%
[2]; Well no.=7708
  remaining activity at 1.25 µM: 94.4%

## C[C@@H](O)[C@H]1C(=O)N2C(C(=O)O)=C(SCCNC=N)C[C@H]12 [Imipenem]
[1]; Well no.=1935
  remaining activity at 3.75 µM: 103%
[1]; Well no.=5494
  remaining activity at 3.75 µM: 104%
[2]; Well no.=1935
  remaining activity at 1.25 µM: 102%
[2]; Well no.=5494
  remaining activity at 1.25 µM: 104%

## CC(C)Cc1ccc(C(C)C(=O)NO)cc1 (stereo not shown) [Ibuproxam]
[1]; Well no.=4091
  remaining activity at 3.75 µM: 94.9%
[2]; Well no.=4091
  remaining activity at 1.25 µM: 95%

## C=CC(=O)Nc1cc2c(Nc3ccc(F)c(Cl)c3)ncnc2cc1OCCCN1CCOCC1 [Canertinib]
[1]; Well no.=2693
  remaining activity at 3.75 µM: 107%
[2]; Well no.=2693
  remaining activity at 1.25 µM: 105%

## CN1[C@@H](CC(=O)c2ccccc2)CCC[C@H]1C[C@H](O)c1ccccc1 [Lobeline (hydrochloride)]
[1]; Well no.=8326
  remaining activity at 3.75 µM: 100%
[2]; Well no.=8326
  remaining activity at 1.25 µM: 104%

## CCCCC[C@H](O)/C=C/[C@@H]1[C@H]2C/C(=C/CCCC(=O)O)O[C@H]2C[C@H]1O [Prostaglandin I2 Na]
[1]; Well no.=4483
  remaining activity at 3.75 µM: 102%
[2]; Well no.=4483
  remaining activity at 1.25 µM: 99%
